Laboratory results from article PMC4331650 (Biochimica et Biophysica Acta, 2014).
Where a chain is given by its changes, count along the chain named. Entries after “also recorded” stand apart in the source; their conditions may differ.

Assays:
[1] = molecular target: T1, F256A CLC-Ka (Homo sapiens, UniProt P51800, F256A); assay: NFA modulation of F256A CLC-Ka currents, voltage clamp in Xenopus oocytes; type: cell-based
T1 sequence (P51800 1-687 F256A): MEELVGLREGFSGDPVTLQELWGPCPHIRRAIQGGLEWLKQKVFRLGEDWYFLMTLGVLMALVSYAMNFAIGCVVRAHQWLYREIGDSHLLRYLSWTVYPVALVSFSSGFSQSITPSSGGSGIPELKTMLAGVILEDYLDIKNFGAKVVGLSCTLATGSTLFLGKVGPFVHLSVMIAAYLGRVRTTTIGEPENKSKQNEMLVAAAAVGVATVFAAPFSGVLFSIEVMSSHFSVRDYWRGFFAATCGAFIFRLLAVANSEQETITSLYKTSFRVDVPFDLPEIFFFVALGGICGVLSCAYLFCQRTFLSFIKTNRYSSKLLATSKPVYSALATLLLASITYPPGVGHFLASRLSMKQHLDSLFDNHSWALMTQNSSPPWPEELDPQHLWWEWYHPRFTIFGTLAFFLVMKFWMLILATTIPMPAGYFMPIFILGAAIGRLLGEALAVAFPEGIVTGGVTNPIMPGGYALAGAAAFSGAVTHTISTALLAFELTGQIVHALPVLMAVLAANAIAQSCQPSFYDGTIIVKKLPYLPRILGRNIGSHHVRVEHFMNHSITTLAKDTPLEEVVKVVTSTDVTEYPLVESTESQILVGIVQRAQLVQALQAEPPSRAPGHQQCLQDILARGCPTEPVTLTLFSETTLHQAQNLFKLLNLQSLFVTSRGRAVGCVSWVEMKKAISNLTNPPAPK
T1 sequence (Q8WZ55 1-320 Y98A partner): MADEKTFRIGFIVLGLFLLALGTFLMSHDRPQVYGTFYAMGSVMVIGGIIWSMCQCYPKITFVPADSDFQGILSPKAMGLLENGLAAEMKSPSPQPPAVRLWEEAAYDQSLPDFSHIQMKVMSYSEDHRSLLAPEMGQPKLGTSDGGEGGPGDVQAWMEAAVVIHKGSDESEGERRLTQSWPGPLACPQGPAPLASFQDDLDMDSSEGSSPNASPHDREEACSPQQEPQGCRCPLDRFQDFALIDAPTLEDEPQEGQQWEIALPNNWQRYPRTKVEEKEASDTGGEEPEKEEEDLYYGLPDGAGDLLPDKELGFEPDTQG

[2] = molecular target: T1, F256A CLC-Ka; type: cell-based; conditions: 200 μM NFA
[3] = molecular target: T2, F256A CLC-Ka/barttin (Homo sapiens, UniProt P51800, F256A); assay: NFA effect on F256A CLC-Ka/barttin, whole-cell patch clamp in HEK293 cells; type: cell-based
T2 sequence (P51800 1-687 F256A): T1 sequence (P51800 1-687 F256A)
T2 sequence (Q8WZ55 1-320 partner): T1 sequence (Q8WZ55 1-320 Y98A partner) with A98Y

[4] = molecular target: T3, N257A CLC-Ka (Homo sapiens, UniProt P51800, N257A); assay: NFA effect on N257A CLC-Ka currents, voltage clamp in Xenopus oocytes; type: cell-based
T3 sequence (P51800 1-687 N257A): T1 sequence (P51800 1-687 F256A) with A256F, N257A
T3 sequence (Q8WZ55 1-320 Y98A partner): T1 sequence (Q8WZ55 1-320 Y98A partner)

[5] = molecular target: T3, N257A CLC-Ka; type: cell-based; conditions: 4 μM NFAext in the presence of 100 μM CPAint; −100 mV and 60 mV
[6] = tested on: human CLC-Ks; conditions: HEK293 cells; all concentrations tested, from 0.3 to 2000 μM; cited from earlier work

O=C(O)c1cccnc1Nc1cccc(C(F)(F)F)c1 [NFA, niflumic acid]
potentiation of currents ([1]; 2 μM NFA): two-fold | current increase ([1]; 200 μM NFA, F256A CLC-Ka in Xenopus oocytes): ~ 25 fold | effect of NFA on currents ([1]; all concentrations tested, from 1 to 2000 μM): potentiated | maximal stimulation (potentiation) of currents ([1]; at 500 μM NFA, currents at 60 mV normalized to 0 NFA): 37 fold | open probability after potentiation by NFA ([2]; judged from variance–mean plots without curvature): below 0.5 | effect on single channel conductance ([2]; −100 mV and 60 mV, noise analysis): does not change significantly | effect of NFA on currents ([3]; 20 μM NFA): increased | effect of NFA on currents ([3]; 500 μM NFA): inhibited | [NFA]ext up to which potentiation is seen ([3]; inhibition at higher [NFA]ext): up to 200 μM | effect of NFA on currents ([4]; all [NFA]ext tested, from 1 to 2000 μM): only blocked | inhibition at 5 µM ([4]; read-out: inhibition of currents): ~90% | effect of NFA on single channel conductance [5]: does not affect the conductance | effect of NFA on currents [6]: inhibited; also recorded: no longer potentiated
